Experimental data: ChEMBL document CHEMBL2413072, “Synthesis and in vitro anticancer studies of novel C-2 arylidene congeners of lantadenes” (2013)

Legend:
Assay type in all cases: functional
SNB-75 = experiment: Growth inhibition of human SNB75 cells by sulforhodamine B assay
SN12C [1] = experiment: Growth inhibition of human SN12C cells by sulforhodamine B assay
NCI-H23 = experiment: Growth inhibition of human NCI-H23 cells assessed as cell growth at 10^-6 M by sulforhodamine B assay; conditions: read-out: Activity
HCT-15 = experiment: Growth inhibition of human HCT15 cells by sulforhodamine B assay
[2] = Growth inhibition of human NCI-ADR-RES cells assessed as cell growth at 10^-8 M by sulforhodamine B assay; conditions: read-out: Activity
UO-31 = experiment: Growth inhibition of human UO31 cells assessed as cell growth at 10^-6 M by sulforhodamine B assay; conditions: read-out: Activity
U-251 [3] = experiment: Growth inhibition of human U251 cells by sulforhodamine B assay
SR = experiment: Growth inhibition of human SR cells assessed as cell growth at 10^-7 M by sulforhodamine B assay; conditions: read-out: Activity
HCT-116 = experiment: Growth inhibition of human HCT116 cells by sulforhodamine B assay
A549 = experiment: Growth inhibition of human A549/ATCC cells assessed as cell growth at 10^-6 M by sulforhodamine B assay; conditions: read-out: Activity
NCI-H460 = experiment: Growth inhibition of human NCI-H460 cells by sulforhodamine B assay
[4] = Growth inhibition of human HCC2998 cells assessed as cell growth at 10^-7 M by sulforhodamine B assay; conditions: HCC 2998, read-out: Activity
NCI-H322M = experiment: Growth inhibition of human NCI-H322M cells assessed as cell growth at 10^-8 M by sulforhodamine B assay; conditions: read-out: Activity
PC-3 = experiment: Growth inhibition of human PC3 cells assessed as cell growth at 10^-4 M by sulforhodamine B assay; conditions: read-out: Activity
MOLT-4 = experiment: Growth inhibition of human MOLT4 cells assessed as cell growth at 10^-8 M by sulforhodamine B assay; conditions: read-out: Activity
DU-145 = experiment: Growth inhibition of human DU145 cells assessed as cell growth at 10^-7 M by sulforhodamine B assay; conditions: read-out: Activity
786-0 [5] = experiment: Growth inhibition of human 786-0 cells assessed as cell growth at 10^-4 M by sulforhodamine B assay; conditions: read-out: Activity
786-0 [6] = experiment: Growth inhibition of human 786-0 cells assessed as cell growth at 10^-8 M by sulforhodamine B assay; conditions: read-out: Activity
HL-60(TB) = experiment: Growth inhibition of human HL-60(TB) cells assessed as cell growth at 10^-7 M by sulforhodamine B assay; conditions: read-out: Activity
SN12C [7] = experiment: Growth inhibition of human SN12C cells assessed as cell growth at 10^-6 M by sulforhodamine B assay; conditions: read-out: Activity
IGROV-1 [8] = experiment: Growth inhibition of human IGROV1 cells assessed as cell growth at 10^-7 M by sulforhodamine B assay; conditions: read-out: Activity
MDA-MB-231 = experiment: Growth inhibition of human MDA-MB-231 cells assessed as cell growth at 10^-8 M by sulforhodamine B assay; conditions: read-out: Activity
COLO 205 = experiment: Growth inhibition of human COLO205 cells assessed as cell growth at 10^-6 M by sulforhodamine B assay; conditions: read-out: Activity
SNB-19 [9] = experiment: Growth inhibition of human SNB19 cells assessed as cell growth at 10^-8 M by sulforhodamine B assay; conditions: read-out: Activity
UACC-62 = experiment: Growth inhibition of human UACC62 cells assessed as cell growth at 10^-4 M by sulforhodamine B assay; conditions: read-out: Activity
[10] = Growth inhibition of human Hs 578T cells assessed as cell growth at 10^-6 M by sulforhodamine B assay; conditions: read-out: Activity
SK-MEL-5 = experiment: Growth inhibition of human SK-MEL-5 cells by sulforhodamine B assay
OVCAR-8 = experiment: Growth inhibition of human OVCAR8 cells assessed as cell growth at 10^-4 M by sulforhodamine B assay; conditions: read-out: Activity
M14 = experiment: Growth inhibition of human M14 cells assessed as cell growth at 10^-4 M by sulforhodamine B assay; conditions: read-out: Activity
U-251 [11] = experiment: Growth inhibition of human U251 cells assessed as cell growth at 10^-4 M by sulforhodamine B assay; conditions: read-out: Activity
786-0 [12] = experiment: Growth inhibition of human 786-0 cells by sulforhodamine B assay
IGROV-1 [13] = experiment: Growth inhibition of human IGROV1 cells assessed as cell growth at 10^-6 M by sulforhodamine B assay; conditions: read-out: Activity
SNB-19 [14] = experiment: Growth inhibition of human SNB19 cells assessed as cell growth at 10^-6 M by sulforhodamine B assay; conditions: read-out: Activity
SK-MEL-2 = experiment: Growth inhibition of human SK-MEL-2 cells assessed as cell growth at 10^-6 M by sulforhodamine B assay; conditions: read-out: Activity
HT-29 = experiment: Growth inhibition of human HT-29 cells assessed as cell growth at 10^-7 M by sulforhodamine B assay; conditions: read-out: Activity
MCF7 = experiment: Growth inhibition of human MCF7 cells assessed as cell growth at 10^-6 M by sulforhodamine B assay; conditions: read-out: Activity
NCI-H522 = experiment: Growth inhibition of human NCI-H522 cells assessed as cell growth at 10^-4 M by sulforhodamine B assay; conditions: read-out: Activity
RXF 393 = experiment: Growth inhibition of human RXF393 cells assessed as cell growth at 10^-4 M by sulforhodamine B assay; conditions: read-out: Activity
MDA-MB-435 = experiment: Growth inhibition of human MDA-MB-435 cells assessed as cell growth at 10^-4 M by sulforhodamine B assay; conditions: read-out: Activity
[15] = read-out: LC50 (the source's name)
[16] = read-out: pLC50 (the source's name) (converted)

Structure (SMILES): C/C=C(/C)C(=O)O[C@@H]1CC(C)(C)C[C@H]2C3=CC[C@@H]4[C@@]5(C)CC[C@H](O)C(C)(C)[C@@H]5CC[C@@]4(C)[C@]3(C)CC[C@@]12C(=O)O [Reduced Lantadene A]
- GI50 (SNB-75; read-out: GI50): 1.77 µM
- CC50 (SNB-75; [15]): > 100 µM
- TGI (SNB-75; read-out: TGI): 5.37 µM
- GI50 (SNB-75; read-out: pGI50 (converted)): 1.78 µM
- CC50 (SNB-75; [16]): > 100 µM
- TGI (SNB-75; read-out: pTGI (converted)): 5.37 µM
- GI50 (SN12C [1]; read-out: GI50): 1.63 µM
- CC50 (SN12C [1]; [15]): 7.22 µM
- TGI (SN12C [1]; read-out: TGI): 3.43 µM
- GI50 (SN12C [1]; read-out: pGI50 (converted)): 1.62 µM
- CC50 (SN12C [1]; [16]): 7.24 µM
- TGI (SN12C [1]; read-out: pTGI (converted)): 3.47 µM
- growth at 1 µM (NCI-H23): 98%
- GI50 (HCT-15; read-out: GI50): 2.58 µM
- LC50 (50% lethal concentration) (HCT-15; read-out: LC50): 62.6 µM
- TGI (HCT-15; read-out: TGI): 11.5 µM
- GI50 (HCT-15; read-out: pGI50 (converted)): 2.57 µM
- LC50 (50% lethal concentration) (HCT-15; read-out: pLC50 (converted)): 63.1 µM
- TGI (HCT-15; read-out: pTGI (converted)): 11.5 µM
- growth at 0.01 µM [2]: 102%
- growth at 1 µM (UO-31): 89%
- GI50 (U-251 [3]; read-out: GI50): 1.59 µM
- CC50 (U-251 [3]; [15]): 6.6 µM
- TGI (U-251 [3]; read-out: TGI): 3.24 µM
- GI50 (U-251 [3]; read-out: pGI50 (converted)): 1.58 µM
- CC50 (U-251 [3]; [16]): 6.61 µM
- TGI (U-251 [3]; read-out: pTGI (converted)): 3.24 µM
- growth at 0.1 µM (SR): 81%
- GI50 (HCT-116; read-out: GI50): 2.45 µM
- LC50 (HCT-116; read-out: LC50): 65 µM
- TGI (HCT-116; read-out: TGI): 10.1 µM
- GI50 (HCT-116; read-out: pGI50 (converted)): 2.45 µM
- LC50 (HCT-116; read-out: pLC50 (converted)): 64.6 µM
- TGI (HCT-116; read-out: pTGI (converted)): 10.2 µM
- growth at 1 µM (A549): 61%
- GI50 (NCI-H460; read-out: GI50): 2.84 µM
- LC50 (NCI-H460; read-out: LC50): > 100 µM
- TGI (NCI-H460; read-out: TGI): 11.7 µM
- GI50 (NCI-H460; read-out: pGI50 (converted)): 2.82 µM
- LC50 (NCI-H460; read-out: pLC50 (converted)): > 100 µM
- TGI (NCI-H460; read-out: pTGI (converted)): 11.7 µM
- growth at 0.1 µM [4]: 104%
- growth at 0.01 µM (NCI-H322M): 102%
- growth at 100 µM (PC-3): -73%
- growth at 0.01 µM (MOLT-4): 103%
- growth at 0.1 µM (DU-145): 115%
- growth at 100 µM (786-0 [5]): -55%
- growth at 0.01 µM (786-0 [6]): 101%
- growth at 0.1 µM (HL-60(TB)): 110%
- growth at 1 µM (SN12C [7]): 83%
- growth at 0.1 µM (IGROV-1 [8]): 111%
- growth at 0.01 µM (MDA-MB-231): 99%
- growth at 1 µM (COLO 205): 104%
- growth at 0.01 µM (SNB-19 [9]): 90%
- growth at 100 µM (UACC-62): -70%
- growth at 1 µM [10]: 92%
- GI50 (SK-MEL-5; read-out: GI50): 1.8 µM
- CC50 (SK-MEL-5; [15]): 17.2 µM
- TGI (SK-MEL-5; read-out: TGI): 4.39 µM
- GI50 (SK-MEL-5; read-out: pGI50 (converted)): 1.78 µM
- CC50 (SK-MEL-5; [16]): 17.4 µM
- TGI (SK-MEL-5; read-out: pTGI (converted)): 4.37 µM
- growth at 100 µM (OVCAR-8): -39%
- growth at 100 µM (M14): -48%
- growth at 100 µM (U-251 [11]): -52%
- GI50 (786-0 [12]; read-out: GI50): 1.81 µM
- CC50 (786-0 [12]; [15]): 6.44 µM
- TGI (786-0 [12]; read-out: TGI): 3.41 µM
- GI50 (786-0 [12]; read-out: pGI50 (converted)): 1.82 µM
- CC50 (786-0 [12]; [16]): 6.46 µM
- TGI (786-0 [12]; read-out: pTGI (converted)): 3.39 µM
- growth at 1 µM (IGROV-1 [13]): 111%
- growth at 1 µM (SNB-19 [14]): 85%
- growth at 1 µM (SK-MEL-2): 109%
- growth at 0.1 µM (HT-29): 108%
- growth at 1 µM (MCF7): 88%
- growth at 100 µM (NCI-H522): -66%
- growth at 100 µM (RXF 393): -76%
- growth at 100 µM (MDA-MB-435): -47%
